Measurements as given in patent publication US5712417A, “Inhibitors of retroviral proteases” (Abbott Laboratories, priority 1989, dated 1998).
Where a name gives a salt, the structure may show the parent alone. Read-outs that look alike come from different tables or passages of the source.

Target: T1, HIV protease (Human immunodeficiency virus type 1 group M subtype B, UniProt P04585)
T1 construct: HIV protease consists of 99 amino acids and is evidently split off by itself from the pol polyprotein
Assay: Inhibition of HIV protease (cleavage of H-Ser-Phe-Asn-Phe-Opr-Gln-Ile-OH, HPLC)
Format: biochemical
Summary of the method: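 Substrate H-Ser-Phe-Asn-Phe-Opr-Gln-Ile-OH in MGTE buffer (MES, glycerol, Triton X-100, PMSF, pH 6) preincubated with inhibitor at 37 °C for 5-10 min, then reacted with protease at 35 °C for 2 h. RP18 HPLC at 215 nm; tetrapeptide fraction gives cleavage rate, IC50 where rate is halved.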

[1] = inhibitor concentration at which the cleavage rate is halved, pH 6, 2 hours, read-out: IC50

Row | Structure (SMILES) | IC50 [1] [nM] | other results
1 | CC(C)[C@H](NC(=O)C(Cc1ccccc1)CS(=O)(=O)N1CCC(NC(=O)OC(C)(C)C)CC1)C(=O)N[C@@H](Cc1ccccc1)[C@@H](O)[C@H](O)[C@H](Cc1ccccc1)NC(=O)[C@@H](NC(=O)C(Cc1ccccc1)CS(=O)(=O)N1CCC(NC(=O)OC(C)(C)C)CC1)C(C)C (stereo partly drawn) [Example 98, N,N'-bis-<2-Benzyl-3-(4-tert.-butoxycarbonylamino-1-piperidylsulfonyl)-propionyl-L-valyl>-2S,5S-diamino-1,6-diphenylhexane-3R,4R-diol] | 1000 | –
2 | CC(C)[C@H](NC(=O)[C@@H](CC(=O)N1CCC(N)CC1)Cc1ccccc1)C(=O)N[C@@H](Cc1ccccc1)[C@@H](O)[C@H](O)[C@H](Cc1ccccc1)NC(=O)[C@@H](NC(=O)[C@@H](CC(=O)N1CCC(N)CC1)Cc1ccccc1)C(C)C [Example 99, N,N'-bis-<3-(4-Amino-1-piperidylcarbonyl-2R-benzyl-propionyl-L-valyl>-2S,5S-diamino-1,6-diphenylhexane-3R,4R-dioldihydrochloride] | – | IC50 (inhibitor concentration at which the cleavage rate is halved, Ex. 99, read-out: IC50): 15 nM
3 | CC(C)[C@H](NC(=O)[C@@H](CC(=O)N1CCC(NC(=O)OC(C)(C)C)CC1)Cc1ccccc1)C(=O)N[C@@H](Cc1ccccc1)[C@@H](O)[C@H](O)[C@H](Cc1ccccc1)NC(=O)[C@@H](NC(=O)[C@@H](CC(=O)N1CCC(NC(=O)OC(C)(C)C)CC1)Cc1ccccc1)C(C)C [Example 100, N,N'-bis-<2R-Benzyl-3-(4-tert.-butoxycarbonylamino-1-piperidylcarbonyl)-propionyl-n-valyl>-2S,5S-diamino-1,6-diphenylhexane-3R,4R-diol dihydrochloride] | 400 | –
4 | CC(C)[C@H](NC(=O)[C@@H](CC(=O)OC(C)(C)C)Cc1ccccc1)C(=O)N[C@@H](Cc1ccccc1)[C@@H](O)[C@H](O)[C@H](Cc1ccccc1)NC(=O)[C@@H](NC(=O)[C@@H](CC(=O)OC(C)(C)C)Cc1ccccc1)C(C)C [Example 102, N,N'-bis-<(2R-Benzyl-3-tert.-butoxycarbonyl)-propionyl-L-valyl>-2S,5S-diamino-1,6-diphenylhexane-3R,4R-diol] | 38 | –
5 | CC(C)[C@H](NC(=O)[C@@H](CNC(=O)OC(C)(C)C)Cc1ccccc1)C(=O)N[C@@H](Cc1ccccc1)[C@@H](O)[C@H](O)[C@H](Cc1ccccc1)NC(=O)[C@@H](NC(=O)[C@@H](CNC(=O)OC(C)(C)C)Cc1ccccc1)C(C)C [Example 106, N,N,-bis-<(2R-Benzyl-3-tert.-butoxycarbonylamino)-propionly-L-valyl>-2S,5S-diamino-1,6-diphenylhexane-3R,4R-diol] | 85 | –
6 | CC(C)[C@H](NC(=O)[C@H](Cc1ccccc1)OC1O[C@H]([C@H](O)CO)[C@H](O)[C@@H]1O)C(=O)N[C@@H](Cc1ccccc1)[C@@H](O)[C@H](O)[C@H](Cc1ccccc1)NC(=O)[C@@H](NC(=O)[C@H](Cc1ccccc1)OC1O[C@H]([C@H](O)CO)[C@H](O)[C@@H]1O)C(C)C (stereo partly drawn) [Example 107, N,N'-bis-<O-(D-Mannofuranosyl)-2S-hydroxy-3-phenyl-propionyl-L-valyl>-2S,5S-diamino-1,6-diphenylhexane-3R,4R-diol] | 8.5 | –
7 | CC(C)[C@H](NC(=O)[C@@H](N)Cc1ccccc1)C(=O)N[C@@H](CCc1ccncc1)[C@@H](O)[C@H](O)[C@H](CCc1ccncc1)NC(=O)[C@@H](NC(=O)[C@@H](N)Cc1ccccc1)C(C)C [Example 108, N,N'-bis-(L-Phenylalanyl-L-valyl)-3S,6S-diamino-1,8-di(4-pyridyl)-octane-,5R-diol tetrahydrochloride] | 280 | –
8 | CC(C)[C@H](NC(=O)[C@H](Cc1ccccc1)NC[C@@]1(O)OC[C@@H](O)[C@@H](O)[C@@H]1O)C(=O)N[C@@H](Cc1ccccc1)[C@H](O)[C@@H](O)[C@H](Cc1ccccc1)NC(=O)[C@@H](NC(=O)[C@H](Cc1ccccc1)NC[C@@]1(O)OC[C@@H](O)[C@@H](O)[C@@H]1O)C(C)C [Example 109, N,N'-bis-<N-(β-D-1-Deoxyfructos-1-yl-L-phenylalanyl-L-valyl>-2S,5S-diamino-1,6-diphenylhexane-3S,4S-diol diacetate] | 5 | –
9 | CC(C)[C@H](NC(=O)[C@H](Cc1ccccc1)NC(=O)[C@H](O)[C@@H](O)[C@H](O)[C@H](O)CO)C(=O)N[C@@H](Cc1ccccc1)[C@@H](O)[C@H](O)[C@H](Cc1ccccc1)NC(=O)[C@@H](NC(=O)[C@H](Cc1ccccc1)NC(=O)[C@H](O)[C@@H](O)[C@H](O)[C@H](O)CO)C(C)C [Example 110, N,N'-bis-<D-Gluconyl-L-phenylalanyl-L-valyl>-2S,5S-diamino-1,6-diphenylhexane-3R,4R-diol] | – | IC50: 1 nM
10 | CC(C)[C@H](NC(=O)[C@@H](N)Cc1ccccc1)C(=O)NC[C@@H](O)[C@H](O)CNC(=O)[C@@H](NC(=O)[C@@H](N)Cc1ccccc1)C(C)C [Example 113, N,N,-bis-<L-phenylalanyl-L-valyl>-1,4-diaminobutane-2R,3R-diol dihydrochloride] | 40 | –
11 | CC(C)[C@H](NC(=O)[C@H](CC1CCCCC1)NC(=O)OC(C)(C)C)C(=O)N[C@@H](Cc1ccccc1)[C@@H](O)[C@H](O)[C@H](Cc1ccccc1)NC(=O)[C@@H](NC(=O)[C@H](CC1CCCCC1)NC(=O)OC(C)(C)C)C(C)C [Example 115, N,N'-bis-<tert.-Butyloxycarbonyl-L-cyclohexylalanyl-L-valyl>-2S,5S-diamino-1,6-diphenylhexane-3R,4R-diol] | 2200 | –
12 | CC(C)[C@H](NC(=O)[C@@H](N)CC1CCCCC1)C(=O)N[C@@H](Cc1ccccc1)[C@@H](O)[C@H](O)[C@H](Cc1ccccc1)NC(=O)[C@@H](NC(=O)[C@@H](N)CC1CCCCC1)C(C)C [Example 116, N,N'-bis-<L-Cyclohexylalanyl-L-valyl>-2S,5S-diamino-1,6-diphenylhexane-3R,4R-diol dihydrochloride] | 1.7 | –
13 | CC(C)[C@H](NC(=O)[C@H](Cc1c[nH]c2ccccc12)NC(=O)OCc1ccccc1)C(=O)N[C@@H](Cc1ccccc1)[C@@H](O)[C@H](O)[C@H](Cc1ccccc1)NC(=O)[C@@H](NC(=O)[C@H](Cc1c[nH]c2ccccc12)NC(=O)OCc1ccccc1)C(C)C [Example 117, N,N'-bis-<Benzyloxycarbonyl-L-tryptophyl-L-valyl>-2S,5S-diamino-1,6-diphenylhexane-3R,4R-diol] | 19 | –
14 | CC(C)[C@H](NC(=O)[C@@H](N)Cc1c[nH]c2ccccc12)C(=O)N[C@@H](Cc1ccccc1)[C@@H](O)[C@H](O)[C@H](Cc1ccccc1)NC(=O)[C@@H](NC(=O)[C@@H](N)Cc1c[nH]c2ccccc12)C(C)C [Example 118, N,N'-bis-<L-Tryptophyl-L-valyl>-2S,5S-diamino-1,6-diphenylhexane-3R,4R-dioldihydrochloride] | – | IC50 (read-out: IC50): 1.2 nM
15 | CC(C)[C@H](NC(=O)[C@@H]1Cc2ccccc2CN1C(=O)OCc1ccccc1)C(=O)N[C@@H](Cc1ccccc1)[C@@H](O)[C@H](O)[C@H](Cc1ccccc1)NC(=O)[C@@H](NC(=O)[C@@H]1Cc2ccccc2CN1C(=O)OCc1ccccc1)C(C)C [Example 119, N,N'-bis-<Benzyloxycarbonyl-L-1,2,3,4-tetrahydro-isoquinolin-3-ylcarbonyl-L-valyl>-2S, 5S-diamino-1,6-diphenylhexane-3R, 4R-diol] | 10000 | –
16 | CC(C)[C@H](NC(=O)[C@@H]1Cc2ccccc2CN1)C(=O)N[C@@H](Cc1ccccc1)[C@@H](O)[C@H](O)[C@H](Cc1ccccc1)NC(=O)[C@@H](NC(=O)[C@@H]1Cc2ccccc2CN1)C(C)C [Example 120, N,N'-bis-<L-1,2,3,4-Tetrahydroisoquinolin-3-ylcarbonyl-L-valyl>-2S,5S-diamino-1,6-diphenylhexane-3R,4R-diol diacetate] | 2 | –
17 | CC(C)[C@H](NC(=O)C(Cc1ccccc1)C[S+]([O-])Cc1ccccc1)C(=O)N[C@@H](Cc1ccccc1)[C@@H](O)[C@H](O)[C@H](Cc1ccccc1)NC(=O)[C@@H](NC(=O)C(Cc1ccccc1)C[S+]([O-])Cc1ccccc1)C(C)C (stereo partly drawn) [Example 121, N,N'-bis-<(2-(Benzylsulfinylmethyl)-3-phenylpropionyl)-L-valyl>-2S,5S-diamino-1,6-diphenylhexane-3R,4R-diol] | 22 | –
18 | CC(C)[C@H](NC(=O)C(Cc1ccccc1)CS(=O)(=O)Cc1ccc(Cl)cc1)C(=O)N[C@@H](Cc1ccccc1)[C@@H](O)[C@H](O)[C@H](Cc1ccccc1)NC(=O)[C@@H](NC(=O)C(Cc1ccccc1)CS(=O)(=O)Cc1ccc(Cl)cc1)C(C)C (stereo partly drawn) [Example 123, N,N'-bis-<(2-(p-Chlorobenzylsulfonylmethyl)-3-phenyl-propionyl)-L-valyl>-2S,5S-diamino-1,6-diphenylhexane-3R,4R-diol] | 32 | –
19 | Cc1ccc(S(=O)(=O)N[C@@H](Cc2ccc3ccccc3c2)C(=O)N[C@H](C(=O)N[C@@H](Cc2ccccc2)[C@@H](O)[C@H](O)[C@H](Cc2ccccc2)NC(=O)[C@@H](NC(=O)[C@H](Cc2ccc3ccccc3c2)NS(=O)(=O)c2ccc(C)cc2)C(C)C)C(C)C)cc1 [Example 124, N,N'-bis-<N-Tosyl-β-naphthylalanyl-L-valyl>-2S, 5S-diamino-1,6-diphenylhexane-3R, 4R-diol] | 11 | –
20 | CC(C)[C@H](NC(=O)[C@H](Cc1ccc2ccccc2c1)NS(C)(=O)=O)C(=O)N[C@@H](Cc1ccccc1)[C@@H](O)[C@H](O)[C@H](Cc1ccccc1)NC(=O)[C@@H](NC(=O)[C@H](Cc1ccc2ccccc2c1)NS(C)(=O)=O)C(C)C [Example 125, N,N,-bis-<N-Mesyl-β-naphthylalanyl-L-valyl>-2S,5S-diamino-1,6-diphenylhexane-3R,4R-diol] | 0.75 | –
21 | CC(C)[C@H](NC(=O)OC(C)(C)C)C(=O)N[C@H](Cc1ccccc1)[C@@H](O)[C@H](O)[C@@H](Cc1ccccc1)NC(=O)[C@@H](NC(=O)OC(C)(C)C)C(C)C [Example 127, N,N'-bis-<tert.-Butoxycarbonyl-L-valyl>-2R,5R-diamino-1,6-diphenylhexane-3R,4R-diol] | 46 | –
